Patent publication US4735953A, “Pharmaceutical preparation for learning stimulation and memory improvement” (priority 1986, dated 1988)
Counter-ions that a name gives are not always drawn.

Legend:
[1] = tested on: learning ability of rats preliminarily sorted out for poor learning ability; experiment: Active avoidance learning in a shuttle chamber, rats sorted out for poor learning ability; type: in vivo, rat; conditions: poorly learning rats, hypodermally 0.04 mg/kg
From the text: (§1) In these experiments rats are taught to avoid an electric shock by escaping into a next chamber communicating with the first chamber by means of a special opening--a door. An electric current is applied to the chamber door consisting of metal plates. A conditional irritator is a light signal together with a sound click. The learning series consisted of 50 combinations. The number of combinations necessary for the animal's learning to escape into another chamber in response to the conditional signal was determined. Five correct responses out of 6 where regarded as the proof of stability of the acquired knowledge and were denoted as a "learning criterion". After 7 days the educational procedure was repeated, and again the number of combinations necessary to acquire the "learning criterion" was determined. In the case of difference between the first and second readings the percentage of retention of the acquired knowledge was calculated.
(§2) In this experiment the effect of the preparation according to the present invention and prior art preparations was separately evaluated for the purpose of comparison on well-learning and on specially selected poorly learning rats. […] To the poorly learning rats the animals were assigned which reached no "learning criterion" in the teaching series of 50 combinations, or, in other words, a stable knowledge of active avoidance was not worked out in them. […] The preparation according to the present invention and the prior art comparison preparations were administered before the first teaching series or thereafter.
(§3) Also studied were the effects produced upon a single and repeated administration of the preparation according to the present invention for 14 days.

[2] = tested on: cerebral cortex of rabbits; experiment: Asymmetry factor by induced potential in the hearing zone of the cerebral cortex; type: in vivo, rabbit
Procedure: In the third series of experiments the effect of the preparation according to the present invention on the functional brain asymmetry was studied. The experiments were carried out on rabbits with electrodes implanted in the brain. The electrodes under nembutal narcosis (40 mg/kg) were implanted strictly symmetrically into the bearing zone of the temporal cortex of the right and left hemispheres on its lateral surface, whereas the indifferent electrode was secured to the nasal bones of a rabbit's skull. The acoustic irritation was applied through earphones. As the acoustic irritation a sound click caused by a square-shaped pulse from an electronic stimulator with a frequency of 0.1-0.2 Hz was used; the click intensity was adjusted within the range of from 5 to 80 Db. The amplification of the taken-off biopotentials was effected on an electroencephalograph; the induced potentials were obtained by means of an analyzer. 100 experiments on 20 animals were thus conducted; the interval between experiments on one animal was 7 days. The amplitude and form of the induced potential were determined. The asymmetry factor (Kas) was calculated by the formula: [formula] Ar --amplitude of the induced potential of the […] hemisphere, μV;
A1 --amplitude of the induced potential of the left hemisphere.
The test preparations were administered hypodermally in the form of 0.5-1.5% aqueous solutions 20 minutes before the beginning of the measurements.

[3] = tested on: learning ability of mice in a shuttle chamber; experiment: Learning ability of mice in a shuttle chamber; type: in vivo, mouse; conditions: mice
[4] = tested on: learning ability of rats in a shuttle chamber; experiment: Active avoidance learning in a shuttle chamber, rats; type: in vivo, rat; conditions: rats, hypodermally 0.04 mg/kg
From the text: as §1, §2, §3

[5] = hypodermally 0.03 mg/kg, 1st day
[6] = hypodermally 0.03 mg/kg, 12 day (retention)
[7] = hypodermally 0.1 mg/kg, 1st day
[8] = hypodermally 0.1 mg/kg, 12 day (retention)
[9] = hypodermally 30 mg/kg, 12 day (retention)
[10] = hypodermally 100 mg/kg, 1st day
[11] = hypodermally 100 mg/kg, 12 day (retention)
[12] = hypodermally 300 mg/kg, 1st day
[13] = hypodermally 300 mg/kg, 12 day (retention)
[14] = per os 300 mg/kg, 12 day (retention)

SMILES: CNC(=O)Oc1ccc2c(c1)[C@]1(C)CCN(C)[C@@H]1N2C [Physostigmine, physostigmine]
- % of knowledge retention [1]: 10%
- Number of combinations till appearance of "learning criterion", I teaching [1]: 46 ± 3.1
- Number of combinations till appearance of "learning criterion", II-checking of retention of knowledge [1]: 31.4 ± 1.8
- Number of untaught animals in the group [1]: 12/20
- asymmetry factor (in words) [2]: did not change or reduced the factor of asymmetry
- Asymmetry factor, Preparation ([2]; hypodermally 0.04 mg/kg, control 0.22 ± 0.01): 0.11 ± 0.01
- teaching of animals (in words) ([3]; 0.03 mg/kg): slightly improves
- teaching of animals (in words) ([3]; 0.1 mg/kg): impairs teaching of animals
- % of avoidance reactions, group I [3, 5]: 20%
- % of avoidance reactions, group II [3, 5]: 21%
- % of avoidance reactions, group III [3, 5]: 26%
- % of avoidance reactions, group IV [3, 5]: 35%
- % of avoidance reactions, group V [3, 5]: 49%
- % of avoidance reactions, group VI [3, 5]: 57%
- % of avoidance reactions, group I [3, 6]: 50%
- % of avoidance reactions, group II [3, 6]: 80%
- % of avoidance reactions, group III [3, 6]: 83%
- % of avoidance reactions, group IV [3, 6]: 87%
- % of avoidance reactions, group V [3, 6]: 90%
- % of avoidance reactions, group VI [3, 6]: 89%
- % of avoidance reactions, group I [3, 7]: 18%
- % of avoidance reactions, group II [3, 7]: 4%
- % of avoidance reactions, group III [3, 7]: 7%
- % of avoidance reactions, group IV [3, 7]: 18%
- % of avoidance reactions, group V [3, 7]: 23%
- % of avoidance reactions, group VI [3, 7]: 38%
- % of avoidance reactions, group I [3, 8]: 39%
- % of avoidance reactions, group II [3, 8]: 60%
- % of avoidance reactions, group III [3, 8]: 70%
- % of avoidance reactions, group IV [3, 8]: 70%
- % of avoidance reactions, group V [3, 8]: 71%
- % of avoidance reactions, group VI [3, 8]: 70%
- Number of combinations to reach the "learning criterion" in II teaching series (after 7 days) [4]: 6.1 ± 0.9
- Number of combinations to reach the "learning criterion" in the I teaching series [4]: 21.9 ± 2.5
- Number of non-taught animals in the group [4]: 1/20
- Percentage knowledge retention [4]: 72%

SMILES: COc1ccc2c3c1O[C@H]1C[C@@H](O)C=C[C@@]31CCN(C)C2 [Galantamine]
- Asymmetry factor, Preparation ([2]; hypodermally 3 mg/kg, control 0.26 ± 0.03): 0.19 ± 0.03

SMILES: CC(C)(CO)[C@@H](O)C(=O)NCCCC(=O)O [Calcium homopantothenate, calcium salt of homopantothenic acid]
- learning (in words) ([3]; 100 mg/kg): improving effect on learning only in a high dose
- effect of hypodermal vs per os administration (in words) ([3]; hypodermal vs per os): substantially more pronounced effect than its per os administration
- % of avoidance reactions, group I ([3]; hypodermally 30 mg/kg, 1st day): 21%
- % of avoidance reactions, group II ([3]; hypodermally 30 mg/kg, 1st day): 23%
- % of avoidance reactions, group III ([3]; hypodermally 30 mg/kg, 1st day): 40%
- % of avoidance reactions, group IV ([3]; hypodermally 30 mg/kg, 1st day): 55%
- % of avoidance reactions, group V ([3]; hypodermally 30 mg/kg, 1st day): 58%
- % of avoidance reactions, group VI ([3]; hypodermally 30 mg/kg, 1st day): 60%
- % of avoidance reactions, group I [3, 9]: 55%
- % of avoidance reactions, group II [3, 9]: 80%
- % of avoidance reactions, group III [3, 9]: 82%
- % of avoidance reactions, group IV [3, 9]: 85%
- % of avoidance reactions, group V [3, 9]: 84%
- % of avoidance reactions, group VI [3, 9]: 88%
- % of avoidance reactions, group I [3, 10]: 20%
- % of avoidance reactions, group II [3, 10]: 31%
- % of avoidance reactions, group III [3, 10]: 40%
- % of avoidance reactions, group IV [3, 10]: 55%
- % of avoidance reactions, group V [3, 10]: 58%
- % of avoidance reactions, group VI [3, 10]: 60%
- % of avoidance reactions, group I [3, 11]: 60%
- % of avoidance reactions, group II [3, 11]: 90%
- % of avoidance reactions, group III [3, 11]: 90%
- % of avoidance reactions, group IV [3, 11]: 89%
- % of avoidance reactions, group V [3, 11]: 90%
- % of avoidance reactions, group VI [3, 11]: 88%
- % of avoidance reactions, group I [3, 12]: 21%
- % of avoidance reactions, group II [3, 12]: 32%
- % of avoidance reactions, group III [3, 12]: 40%
- % of avoidance reactions, group IV [3, 12]: 50%
- % of avoidance reactions, group V [3, 12]: 51%
- % of avoidance reactions, group VI [3, 12]: 55%
- % of avoidance reactions, group I [3, 13]: 53%
- % of avoidance reactions, group II [3, 13]: 75%
- % of avoidance reactions, group III [3, 13]: 76%
- % of avoidance reactions, group IV [3, 13]: 76%
- % of avoidance reactions, group V [3, 13]: 74%
- % of avoidance reactions, group VI [3, 13]: 74%
- % of avoidance reactions, group I ([3]; per os 300 mg/kg, 1st day): 21%
- % of avoidance reactions, group II ([3]; per os 300 mg/kg, 1st day): 22%
- % of avoidance reactions, group III ([3]; per os 300 mg/kg, 1st day): 32%
- % of avoidance reactions, group IV ([3]; per os 300 mg/kg, 1st day): 42%
- % of avoidance reactions, group V ([3]; per os 300 mg/kg, 1st day): 43%
- % of avoidance reactions, group VI ([3]; per os 300 mg/kg, 1st day): 51%
- % of avoidance reactions, group I [3, 14]: 50%
- % of avoidance reactions, group II [3, 14]: 72%
- % of avoidance reactions, group III [3, 14]: 73%
- % of avoidance reactions, group IV [3, 14]: 78%
- % of avoidance reactions, group V [3, 14]: 77%
- % of avoidance reactions, group VI [3, 14]: 80%
